Test results from US4256757A, “1-Substituted imidazoles for inhibition of thromboxane synthetase” (Ono Pharmaceutical Co., Ltd., priority 1978, dated 1981).
In brackets after ≈: the same amount, converted by molar mass. Where a name gives a salt, the structure may show the parent alone.

Experiments:
[1] = molecular target: T1, thromboxane synthetase from rabbit platelet microsomes (Oryctolagus cuniculus, UniProt G1TAZ9); experiment: inhibition of thromboxane synthetase (conversion of prostaglandin H2 into thromboxane B2); type: biochemical
T1 construct: thromboxane synthetase from rabbit platelet microsomes; from tissue; host or cells: rabbit platelet microsomes
T1 sequence (G1TAZ9 1-530): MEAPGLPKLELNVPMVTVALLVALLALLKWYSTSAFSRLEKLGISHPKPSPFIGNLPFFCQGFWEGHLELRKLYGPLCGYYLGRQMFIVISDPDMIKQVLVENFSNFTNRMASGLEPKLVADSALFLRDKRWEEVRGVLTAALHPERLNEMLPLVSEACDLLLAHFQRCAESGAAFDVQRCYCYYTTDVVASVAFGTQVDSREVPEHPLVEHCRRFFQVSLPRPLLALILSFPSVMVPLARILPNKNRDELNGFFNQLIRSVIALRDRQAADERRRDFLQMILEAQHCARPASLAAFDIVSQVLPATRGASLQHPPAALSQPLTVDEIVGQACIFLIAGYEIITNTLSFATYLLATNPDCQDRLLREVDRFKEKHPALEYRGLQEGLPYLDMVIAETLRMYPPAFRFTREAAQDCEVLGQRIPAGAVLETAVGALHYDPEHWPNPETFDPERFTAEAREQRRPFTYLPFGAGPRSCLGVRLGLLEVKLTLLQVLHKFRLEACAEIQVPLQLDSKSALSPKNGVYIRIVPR

[2] = test system: arachidonic acid-induced blood platelet aggregation in platelet-rich plasma of rats; experiment: inhibition of arachidonic acid-induced blood platelet aggregation in platelet-rich plasma; type: cell-based; conditions: Rattus norvegicus, read-out: concentration producing a 50% inhibition of arachidonic acid-induced blood platelet aggregation, in comparison with controls
[3] = test system: arachidonic acid-induced sudden deaths of rabbits; experiment: inhibitory effect on arachidonic acid-induced sudden deaths; type: in vivo; conditions: oral administration, 100 mg/kg animal body weight
acute toxicity test = conditions: mouse, in vivo; ICR-stain male mice (7 weeks old), intravenous administration
thromboxane synthetase [4] = conditions: reported in Prostaglandins, 13(4), 611(1977); cited from earlier work
thromboxane synthetase [5] = experiment: inhibitory action for thromboxane synthetase (prior art); type: biochemical; conditions: prior-art compound, comparison in words
Source text: However, since their inhibitory action for thromboxane synthetase is weak, these compounds are hardly applicable as practically effective medicines.
On the other hand, N-(6-methoxycarbonylhexyl)imidazole has already been synthesized by P. Matthias et al, and publicly known [Monatsch Chem., 108(5), 1059(1977)].

| IC50 [1] [nM] | IC50 [2] [µg/mL] | SMILES | also measured |
| --- | --- | --- | --- |
| 90 | – | CCCCC(CCCn1ccnc1)C(=O)OCC (racemic) [1-[(4RS)-4-ethoxycarbonyloctyl]imidazole] | – |
| 130 | 0.53 | CC(CCCCCn1ccnc1)CC(=O)O.Cl (racemic) [1-[(6RS)-7-carboxy-6-methylheptyl]imidazole hydrochloride] | – |
| 1000 | 0.052 (≈ 0.206 µM) | CCOC(=O)C(C)CCCCCCn1ccnc1 (racemic) [1-[(7RS)-7-ethoxycarbonyloctyl]imidazole] | – |
| 30 | 0.44 (≈ 1.65 µM) | CCOC(=O)C(C)(C)CCCCCCn1ccnc1 [1-(7-ethoxycarbonyl-7-methyloctyl)imidazole] | – |

The remaining lines, values behind:

| SMILES | IC50 [1] [nM] | IC50 [2] [µg/mL] | also measured |
| --- | --- | --- | --- |
| CC(CCCCCCn1ccnc1)C(=O)O.Cl (racemic) [1-[(7RS)-7-carboxyoctyl]imidazole hydrochloride] | – | 0.17 | inhibitory effect on arachidonic acid-induced sudden deaths [3]: inhibitory effect; LD50 (acute toxicity test): 540 mg/kg |
| CC(C)(CCCCCCC(=O)O)n1ccnc1.Cl [1-(7-carboxy-1,1-dimethylheptyl)imidazole hydrochloride] | 71 | 0.18 | – |
| Cl.O=C(O)CCCCC#CCn1ccnc1 [1-(7-carboxy-2-heptynyl)imidazole hydrochloride] | – | 0.21 | inhibitory effect on arachidonic acid-induced sudden deaths [3]: inhibitory effect |
| Cl.O=C(O)C#CCCCCCn1ccnc1 [1-(7-carboxy-6-heptynyl)imidazole hydrochloride] | – | 4 | – |
| CC(C)(CCCCCCn1ccnc1)C(=O)O.Cl [1-(7-carboxy-7-methyloctyl)imidazole hydrochloride] | – | 0.091 | inhibitory effect on arachidonic acid-induced sudden deaths [3]: inhibitory effect; LD50 (acute toxicity test): 330 mg/kg |
| Cn1ccnc1 [1-methylimidazole] | – | – | inhibitory action for thromboxane synthetase (thromboxane synthetase [4]): weak |
| O=C(O)CCCC/C=C\Cn1ccnc1 [(Z)-1-(7-carboxy-2-heptenyl)imidazole hydrochloride] | 16 | – | – |
| O=C(O)/C=C\CCCCCn1ccnc1 [(Z)-1-(7-carboxy-6-heptenyl)imidazole hydrochloride] | 200 | – | – |
| COC(=O)CCCCCCn1ccnc1 [N-(6-methoxycarbonylhexyl)imidazole] | – | – | inhibitory effect on thromboxane synthetase compared with imidazole or 1-methylimidazole (thromboxane synthetase [5]): stronger inhibitory effect |
| c1c[nH]cn1 [imidazole] | – | – | inhibitory action for thromboxane synthetase (thromboxane synthetase [4]): weak |
